Read-outs that look alike come from different tables or passages of the source.
Tests used:
Csk = target: T1, Csk (Homo sapiens, UniProt P41240); test: Csk tyrosine kinase activity, poly E4Y and 32P-ATP; type: biochemical
T1 construct: GST (glutathione-S-transferase) (N); made in house; host or cells: E. coli (pGEX vector)
Protocol: (§1) Recombinant human Src was expressed using the baculovirus-insect cell system and purified as published (Budde et al., 1993 and 2000). Recombinant Csk and the FGF receptor (FGFr) were expressed as glutathione-S-transferase fusion proteins using the pGEX expression vector and E. coli, and purified as described (Sun & Budde, 1995).
(§2) The tyrosine kinase activity of Src, Csk and FGFr was determined using poly E4Y and ^32P-ATP. Briefly, enzymes were assayed in a reaction mixture consisting of 0.15 M EPPS-NaOH (pH 8.0) with 6 mM MgCl2, 0.2 mM γ^32P-ATP (0.2-0.4 mCi/μmol), 10% glycerol, 0.1% Triton X-100, and poly E4Y. Poly E4Y is a synthetic peptide whose phosphorylation is measured in this assay by the addition of the radioactively labeled phosphate from the ATP (Budde et al., 1995). […] When ATP was varied (0, 50, 100 and 250 μM), poly E4Y was kept constant at 150 μg/ml.

Recombinant human Src = target: T2, Recombinant human Src (Homo sapiens, UniProt P12931); test: Src tyrosine kinase activity, poly E4Y and 32P-ATP; type: biochemical
T2 construct: made in house; host or cells: baculovirus-insect cell system
T2 sequence (P12931 whole entry): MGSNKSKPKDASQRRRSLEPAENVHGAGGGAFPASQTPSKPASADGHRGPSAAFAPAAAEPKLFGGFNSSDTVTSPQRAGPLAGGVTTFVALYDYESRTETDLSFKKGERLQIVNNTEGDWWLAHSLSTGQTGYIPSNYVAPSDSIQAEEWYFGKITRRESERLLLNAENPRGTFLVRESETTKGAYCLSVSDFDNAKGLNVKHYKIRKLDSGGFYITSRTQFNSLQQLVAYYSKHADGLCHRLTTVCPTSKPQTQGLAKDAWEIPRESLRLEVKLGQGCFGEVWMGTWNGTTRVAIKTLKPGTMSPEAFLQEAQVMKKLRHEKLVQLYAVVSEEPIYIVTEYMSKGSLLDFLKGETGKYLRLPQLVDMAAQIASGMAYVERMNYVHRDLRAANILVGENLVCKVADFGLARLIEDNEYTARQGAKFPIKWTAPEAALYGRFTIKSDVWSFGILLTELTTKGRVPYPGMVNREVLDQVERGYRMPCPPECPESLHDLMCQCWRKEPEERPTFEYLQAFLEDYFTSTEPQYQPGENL
Protocol: as §1, §2

[1] = screening assay, 50 μg/ml poly E4Y, 0.2 mM 32P-ATP
[2] = Table 2, read-out: Src IC50 (especially good inhibitors of Src)
[3] = read-out: IC50 (preferred compounds for treatment of Src family-related disease)

T1 sequence (P41240 whole entry, species assumed): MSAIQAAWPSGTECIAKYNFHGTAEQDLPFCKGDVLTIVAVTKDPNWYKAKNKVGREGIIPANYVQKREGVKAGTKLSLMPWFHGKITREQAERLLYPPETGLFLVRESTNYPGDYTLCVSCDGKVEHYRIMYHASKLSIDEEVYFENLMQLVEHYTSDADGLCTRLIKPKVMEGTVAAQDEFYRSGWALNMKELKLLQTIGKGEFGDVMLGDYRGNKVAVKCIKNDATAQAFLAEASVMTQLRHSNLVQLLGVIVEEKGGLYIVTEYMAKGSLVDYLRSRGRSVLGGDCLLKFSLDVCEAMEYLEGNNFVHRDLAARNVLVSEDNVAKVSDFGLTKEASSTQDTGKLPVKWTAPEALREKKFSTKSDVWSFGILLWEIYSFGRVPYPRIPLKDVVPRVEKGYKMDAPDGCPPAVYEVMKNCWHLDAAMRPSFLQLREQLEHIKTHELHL

For `Cc1csc2c(NN=Cc3nccs3)ncnc12` [Compound 40, 2-Thiazolecarboxaldehyde(7-methylthieno[3,2-d]pyrimidin-4-yl)hydrazone], the IC50 (Csk; [1]) was over 182 µM.
`Ic1cc2ncnc(NN=Cc3cccs3)c2s1` [Compound 396, 2-Thiophenecarboxaldehyde(6-iodothieno[3,2-d]pyrimidin-4-yl)hydrazone] was tested, and the IC50 (Csk; [1]) was over 129 µM.
For `Cc1csc2c(NN=CC3CCCCC3)ncnc12` [Compound 25, Cyclohexanecarboxaldehyde(7-methylthieno[3,2-d]pyrimidin-4-yl)hydrazone], the IC50 (Csk; [1]) was over 182 µM.
With `Cc1csc2c(NN=Cc3ccc(F)cc3)ncnc12` [Compound 6, 4-Fluorobenzaldehyde(7-methylthieno[3,2-d]pyrimidin-4-yl)hydrazone] the IC50 (Csk; [1]) was over 175 µM.
With `Cc1csc2c(NN=Cc3ccc(Br)cc3)ncnc12` [Compound 56] the IC50 (Csk; [1]) was over 144 µM.
In the case of `Cc1csc2c(NN=Cc3cccc(C(=O)O)c3)ncnc12` [Compound 249, 3-Carboxybenzaldehyde(7-methylthieno[3,2-d]pyrimidin-4-yl)hydrazone], the IC50 (Csk; [1]) is reported as over 160 µM.
Work on `CC=CC=NNc1ncnc2c(C)csc12` [Compound 182, E-2-Butenal(7-methylthieno[3,2-d]pyrimidin-4-yl)hydrazone] yielded an IC50 (Csk; [1]) of over 215 µM.
Work on `CCCCOc1cccc(C=NNc2ncnc3c(C)csc23)c1` [Compound 139] yielded an IC50 (Csk; [1]) of over 147 µM.
With `Cc1csc2c(NN=Cc3ccc(C(=O)O)cc3)ncnc12` [Compound 28, 4-Carboxybenzaldehyde(7-methylthieno[3,2-d]pyrimidin-4-yl)hydrazone] the IC50 (Csk; [1]) was over 160 µM.
Compound `COc1ccc(-c2sc3c(NN=Cc4cccs4)ncnc3c2C)cc1` [Compound 424, 2-Thiophenecarboxaldehyde(6-(4-methoxyphenyl)-7-methylthieno[3,2-d]pyrimidin-4-yl)hydrazone] has an IC50 (Csk; [1]) of over 131 µM.
With `COc1ccc(C=NNc2ncnc3c(C)c(C(O)c4cc(OC)c(OC)c(OC)c4)sc23)cc1O` (stereo not drawn) [Compound 482, 3-Hydroxy-4-methoxybenzaldehyde(6-(1-hydroxy-1-[3,4,5-trimethoxyphenyl])methyl-7-methylthieno[3,2-d]pyrimidin-4-yl)hydrazone] the IC50 (Csk; poly E4Y and 32P-ATP) was over 97.9 µM.
For `CC=NNc1ncnc2c(C)csc12` [Compound 153, Ethanal(7-methylthieno[3,2-d]pyrimidin-4-yl)hydrazone], the IC50 (Csk; [1]) was over 242 µM.
With `Cc1csc2c(NN=Cc3ncc[nH]3)ncnc12` [Compound 34, 1H-Imidazole-2-carboxaldehyde(7-methylthieno[3,2-d]pyrimidin-4-yl)hydrazone] the IC50 (Csk; [1]) was over 194 µM.
`Clc1cccc(-c2cc3ncnc(NN=Cc4cccs4)c3s2)c1` [Compound 306] gave an IC50 (Csk; [1]) of over 135 µM.
`COc1ccc(C=NNc2ncnc3c(C)c(/C=C/c4ccccc4)sc23)cc1O` [Compound 450, 3-Hydroxy-4-methoxybenzaldehyde(7-methyl-6-(trans-2-phenylvinyl)-thieno[3,2-d]pyrimidin-4-yl)hydrazone] gave an IC50 (Csk; [1]) of over 120 µM.
`Cc1csc2c(NN=Cc3ccccn3)ncnc12` [Compound 26, 2-Pyridinecarboxaldehyde(7-methylthieno[3,2-d]pyrimidin-4-yl)hydrazone] showed an IC50 (Csk; [1]) of over 186 µM.
`CCCCC=NNc1ncnc2c(C)csc12` [Compound 175, Pentanal(7-methylthieno[3,2-d]pyrimidin-4-yl)hydrazone] gave an IC50 (Csk; [1]) of over 201 µM.
`CCCC=NNc1ncnc2c(C)csc12` [Compound 174, Butanal(7-methylthieno[3,2-d]pyrimidin-4-yl)hydrazone] showed an IC50 (Csk; [1]) of over 213 µM.
Work on `COc1ccc(-c2cc3ncnc(NN=Cc4cccs4)c3s2)cc1` [Compound 407, 2-Thiophenecarboxaldehyde(6-(4-methoxyphenyl)thieno[3,2-d]pyrimidin-4-yl)hydrazone] yielded an IC50 (Csk; [1]) of over 136 µM.
Compound `Cc1csc2c(NN=Cc3cccc([N+](=O)[O-])c3)ncnc12` [Compound 144] has an IC50 (Csk; [1]) of over 160 µM.
Compound `CC(=O)Nc1ccc(C=NNc2ncnc3c(C)csc23)cc1` [Compound 20, 4-Acetamidobenzaldehyde(7-methylthieno[3,2-d]pyrimidin-4-yl)hydrazone] has an IC50 (Csk; [1]) of over 154 µM.
With `Cc1csc2c(NN=CC3CC=CCC3)ncnc12` (stereo not drawn) [Compound 181, 3-Cyclohexene-1-carboxaldehyde(7-methylthieno[3,2-a]pyrimidin-4-yl)hydrazone] the IC50 (Csk; [1]) was over 184 µM.
`C(=NNc1ncnc2cc(-c3ccccc3)sc12)c1cccs1` [Compound 253] was tested, and the IC50 (Csk; [1]) was over 149 µM.
`CCC=NNc1ncnc2c(C)csc12` [Compound 173, Propanal(7-methylthieno[3,2-d]pyrimidin-4-yl)hydrazone] gave an IC50 (Csk; [1]) of over 227 µM.
Compound `N#Cc1ccc(C=NNc2ncnc3c2sc2ncccc23)cc1` [Compound 248] has an IC50 (Csk; [1]) of over 151 µM.
`Cc1csc2c(NN=Cc3ccccc3Cl)ncnc12` [Compound 45, 2-Chlorobenzaldehyde(7-methylthieno[3,2-d]pyrimidin-4-yl)hydrazone] showed an IC50 (Csk; [1]) of over 165 µM.
Work on `CCCOc1cccc(C=NNc2ncnc3c(C)csc23)c1` [Compound 135, 3-Propoxybenzaldehyde(7-methylthieno[3,2-d]pyrimidin-4-yl)hydrazone] yielded an IC50 (Csk; [1]) of over 153 µM.
`CSc1ccc(C=NNc2ncnc3c(C)csc23)cc1` [Compound 172, 4-(Methylthio)benzaldehyde(7-methylthieno[3,2-d]pyrimidin-4-yl)hydrazone] was tested, and the IC50 (Csk; [1]) was over 159 µM.
For `Clc1cccc(-c2cc3ncnc(NN=Cc4cccnc4)c3s2)c1` [Compound 304, 3-Pyridinecarboxaldehyde(6-(3-chlorophenyl)thieno[3,2-d]pyrimidin-4-yl)hydrazone], the IC50 (Csk; [1]) was over 137 µM.
Compound `COc1cc(C(O)c2sc3c(NN=Cc4ccc(C(=O)O)cc4)ncnc3c2C)cc(OC)c1OC` (stereo not drawn) [Compound 480, 4-Carboxybenzaldehyde(6-(1-hydroxy-1-[3,4,5-trimethoxyphenyl])methyl-7-methylthieno[3,2-d]pyrimidin-4-yl)hydrazone] has an IC50 (Csk; poly E4Y and 32P-ATP) of over 98.3 µM.
`CCCOc1ccc(C=NNc2ncnc3c(C)csc23)cc1` [Compound 134, 4-Propoxybenzaldehyde(7-methylthieno[3,2-d]pyrimidin-4-yl)hydrazone] was tested, and the IC50 (Csk; [1]) was over 153 µM.
In the case of `Cc1sc2c(NN=Cc3ccc(F)cc3)ncnc2c1C` [Compound 93, 4-Fluorobenzaldehyde(6,7-dimethylthieno[3,2-d]pyrimidin-4-yl)hydrazone], the IC50 (Csk; [1]) is reported as over 166 µM.
With `Cc1csc2c(NN=Cc3c[nH]cn3)ncnc12` [Compound 42, 1H-Imidazole-4-carboxaldehyde(7-methylthieno[3,2-d]pyrimidin-4-yl)hydrazone] the IC50 (Recombinant human Src; [2]) was at most 2000 nM and the IC50 (Recombinant human Src; [3]) was under 2000 nM.
For `Cc1csc2c(NN=CC3CC3)ncnc12` [Compound 178, Cyclopropanecarboxaldehyde(7-methylthieno[3,2-d]pyrimidin-4-yl)hydrazone], the IC50 (Recombinant human Src; [2]) was at most 2000 nM and the IC50 (Recombinant human Src; [3]) was under 2000 nM.
`Cc1c(C(O)c2cccnc2)sc2c(NN=Cc3ccc(C(=O)O)cc3)ncnc12` (stereo not drawn) [Compound 484, 4-Carboxybenzaldehyde(6-(1-hydroxy-1-[3-pyridyl])methyl-7-methylthieno[3,2-d]pyrimidin-4-yl)hydrazone] showed an IC50 (Recombinant human Src; [2]) of at most 2000 nM and an IC50 (Recombinant human Src; [3]) of under 2000 nM.
For `Cc1c(C(O)c2ccccc2)sc2c(NN=Cc3cccnc3)ncnc12` (stereo not drawn) [Compound 457, 3-Pyridinecarboxaldehyde(6-(1-hydroxy-1-phenyl)methyl-7-methylthieno[3,2-d]pyrimidin-4-yl)hydrazone], the IC50 (Recombinant human Src; [2]) was at most 2000 nM and the IC50 (Recombinant human Src; [3]) was under 2000 nM.
With `COc1ccc(C=NNc2ncnc3c(C)c(C(O)c4cccs4)sc23)cc1O` (stereo not drawn) [Compound 490, 3-Hydroxy-4-methoxybenzaldehyde(6-(1-hydroxy-1-[2-thienyl])methyl-7-methylthieno[3,2-d]pyrimidin-4-yl)hydrazone] the IC50 (Recombinant human Src; [2]) was at most 2000 nM and the IC50 (Recombinant human Src; [3]) was under 2000 nM.
In the case of `Cc1c(-c2ccc(C(=O)O)cc2)sc2c(NN=Cc3cccs3)ncnc12` [Compound 455, 2-Thiophenecarboxaldehyde(6-(4-carboxyphenyl)-7-methylthieno[3,2-d]pyrimidin-4-yl)hydrazone], the IC50 (Recombinant human Src; [2]) is reported as at most 2000 nM and the IC50 (Recombinant human Src; [3]) is reported as under 2000 nM.
With `Cc1c(-c2ccccc2Cl)sc2c(NN=Cc3ccc(C(=O)O)cc3)ncnc12` [Compound 390, 4-Carboxybenzaldehyde(6-(2-chlorophenyl)7-methylthieno[3,2-d]pyrimidin-4-yl)hydrazone] the IC50 (Recombinant human Src; [2]) was at most 2000 nM and the IC50 (Recombinant human Src; [3]) was under 2000 nM.
For `Cc1c(-c2ccc(CO)cc2)sc2c(NN=Cc3ccc(C(=O)O)cc3)ncnc12` [Compound 437, 4-Carboxybenzaldehyde(6-(4-hydroxymethylphenyl)-7-methylthieno[3,2-d]pyrimidin-4-yl)hydrazone], the IC50 (Recombinant human Src; [2]) was at most 2000 nM and the IC50 (Recombinant human Src; [3]) was under 2000 nM.
In the case of `Cc1c(CO)sc2c(NN=Cc3cccnc3)ncnc12` [Compound 476, 3-Pyridinecarboxaldehyde(6-hydroxymethyl-7-methylthieno[3,2-d]pyrimidin-4-yl)hydrazone], the IC50 (Recombinant human Src; [2]) is reported as at most 2000 nM and the IC50 (Recombinant human Src; [3]) is reported as under 2000 nM.
`COc1ccc(C=NNc2ncnc3c(C)c(-c4ccc(C(=O)O)cc4)sc23)cc1O` [Compound 456, 3-Hydroxy-4-methoxybenzaldehyde(6-(4-carboxyphenyl)-7-methylthieno[3,2-d]pyrimidin-4-yl)hydrazone] gave an IC50 (Recombinant human Src; [2]) of at most 2000 nM and an IC50 (Recombinant human Src; [3]) of under 2000 nM.
`Cc1c(C(O)c2ccccc2)sc2c(NN=Cc3cccs3)ncnc12` (stereo not drawn) [Compound 459, 2-Thiophenecarboxaldehyde(6-(1-hydroxy-1-phenyl)methyl-7-methylthieno[3,2-d]pyrimidin-4-yl)hydrazone] was tested, and the IC50 (Recombinant human Src; [2]) was at most 2000 nM and the IC50 (Recombinant human Src; [3]) was under 2000 nM.

Source: patent US7285556B2, “Thienopyrimidine-based inhibitors of the src family” (Board of Regents, The University of Texas Systems, priority 2000, dated 2007)
